# Test results from ChEMBL document CHEMBL1743141, “Membrane transporters in drug development” (Nat Rev Drug Discov, 2010).
# Biological target: T1, Solute carrier organic anion transporter family member 1A2 (Homo sapiens, UniProt P46721)
# T1 sequence (P46721 whole entry): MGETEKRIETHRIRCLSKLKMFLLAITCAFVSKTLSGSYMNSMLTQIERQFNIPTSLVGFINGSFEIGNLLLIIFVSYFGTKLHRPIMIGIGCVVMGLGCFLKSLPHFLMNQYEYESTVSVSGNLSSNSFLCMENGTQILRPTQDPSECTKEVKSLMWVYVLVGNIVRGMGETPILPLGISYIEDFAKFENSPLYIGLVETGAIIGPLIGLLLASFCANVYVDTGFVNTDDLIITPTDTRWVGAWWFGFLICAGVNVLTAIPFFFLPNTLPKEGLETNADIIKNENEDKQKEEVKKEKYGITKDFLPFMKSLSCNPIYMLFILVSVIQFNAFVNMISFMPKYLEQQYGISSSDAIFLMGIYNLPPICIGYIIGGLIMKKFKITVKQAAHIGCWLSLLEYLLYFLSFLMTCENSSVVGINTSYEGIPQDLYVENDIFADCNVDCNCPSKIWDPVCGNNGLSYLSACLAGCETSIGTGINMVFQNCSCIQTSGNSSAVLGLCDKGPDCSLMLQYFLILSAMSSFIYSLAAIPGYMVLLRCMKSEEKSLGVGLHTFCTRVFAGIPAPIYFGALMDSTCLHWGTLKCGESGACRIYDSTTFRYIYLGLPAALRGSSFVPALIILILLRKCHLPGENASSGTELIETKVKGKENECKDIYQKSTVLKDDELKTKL
# Assay: Inhibitors of transporters of clinical importance in the absorption and disposition of drugs, OATP1A2
# Assay type: ADME
smiles,measurement,value
C[C@@H]1O[C@@H](O[C@H]2[C@H](Oc3cc(O)c4c(c3)O[C@H](c3ccc(O)cc3)CC4=O)O[C@H](CO)[C@@H](O)[C@@H]2O)[C@H](O)[C@H](O)[C@H]1O [NARINGIN],Activity,transporter inhibitor
